This is an account of results in article PMC9856672, “SGC-CAMKK2-1: A Chemical Probe for CAMKK2” (Cells, 2023).

Assay [1] concerns the target T1, PIK3CB (Homo sapiens, UniProt P42338).
T1 construct: purchased Eurofins DiscoverX KINOMEscan
The assay can be described thus: DiscoverX KINOMEscan binding assay at 1 μM, PIK3CB. Particulars: Compound Concentration 1000 nM, read-out: Percent Control. An excerpt: (§1) Supplement cells-12-00287-s001.zip/File S2. KinomeScan data for the CAMKK2 probe and negative control.xlsx, sheet "SGC-CAMKK2-1" | column: Percent Control

Assay [2] has as its target T2, SGK3 (Homo sapiens, UniProt Q96BR1).
T2 construct: purchased Eurofins DiscoverX KINOMEscan
Description: DiscoverX KINOMEscan binding assay at 1 μM, SGK3. Particulars: Compound Concentration 1000 nM, read-out: Percent Control.
Text: as §1

Assay [3] concerns the target T3, FES (Homo sapiens, UniProt P07332).
T3 construct: purchased Eurofins DiscoverX KINOMEscan
The assay can be described thus: KINOMEscan 1 μM, FES. In kind it is binding. The conditions noted are these: 1000 nM; Entrez FES; read-out: Percent Control.
Text: as §1

Assay [4] concerns the target T4, TRKB (Homo sapiens, UniProt Q16620).
T4 construct: purchased Eurofins DiscoverX KINOMEscan
Description: DiscoverX KINOMEscan binding assay at 1 μM, TRKB. Particulars: TRKB (NTRK2); Compound Concentration 1000 nM; read-out: Percent Control.
Text: as §1

For assay [5], the target named is T5, p38-gamma (Homo sapiens, UniProt P53778).
T5 construct: purchased Eurofins DiscoverX KINOMEscan
Description: KINOMEscan 1 μM, p38-gamma. The format is binding. Particulars: 1000 nM; Entrez MAPK12; read-out: Percent Control.
Text: as §1

The target of assay [6] is T6, MERTK (Homo sapiens, UniProt Q12866).
T6 construct: purchased Eurofins DiscoverX KINOMEscan
T6 sequence (Q12866 21-999): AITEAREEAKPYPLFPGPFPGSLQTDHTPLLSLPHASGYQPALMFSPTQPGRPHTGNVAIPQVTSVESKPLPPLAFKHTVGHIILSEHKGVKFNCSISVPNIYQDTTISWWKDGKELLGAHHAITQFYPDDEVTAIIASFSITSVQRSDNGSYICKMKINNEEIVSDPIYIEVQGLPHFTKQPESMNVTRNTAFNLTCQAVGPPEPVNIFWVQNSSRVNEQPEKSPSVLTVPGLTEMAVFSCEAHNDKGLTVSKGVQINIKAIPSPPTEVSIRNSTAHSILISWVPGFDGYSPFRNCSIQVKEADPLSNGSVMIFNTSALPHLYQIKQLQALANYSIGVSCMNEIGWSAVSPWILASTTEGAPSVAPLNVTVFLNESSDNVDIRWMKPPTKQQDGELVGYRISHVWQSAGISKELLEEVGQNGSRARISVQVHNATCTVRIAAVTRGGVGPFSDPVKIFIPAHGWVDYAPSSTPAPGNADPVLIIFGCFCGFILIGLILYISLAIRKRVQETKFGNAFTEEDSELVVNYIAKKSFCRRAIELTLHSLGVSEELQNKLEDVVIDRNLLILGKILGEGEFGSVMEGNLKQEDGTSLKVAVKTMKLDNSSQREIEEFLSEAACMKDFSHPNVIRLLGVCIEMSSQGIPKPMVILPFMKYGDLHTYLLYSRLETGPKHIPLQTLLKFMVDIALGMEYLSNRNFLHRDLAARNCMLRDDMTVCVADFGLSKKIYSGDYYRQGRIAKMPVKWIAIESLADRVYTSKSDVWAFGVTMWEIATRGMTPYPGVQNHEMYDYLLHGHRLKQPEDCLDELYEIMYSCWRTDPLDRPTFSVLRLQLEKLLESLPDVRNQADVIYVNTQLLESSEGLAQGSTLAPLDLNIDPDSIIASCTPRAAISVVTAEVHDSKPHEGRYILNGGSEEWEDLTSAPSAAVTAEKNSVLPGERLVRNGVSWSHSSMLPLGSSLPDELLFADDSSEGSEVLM
Description: KINOMEscan 1 μM, MERTK. In kind it is binding. The conditions noted are these: 1000 nM; Entrez MERTK; read-out: Percent Control.
Text: as §1

For assay [7], the target named is T7, STK36 (Homo sapiens, UniProt Q9NRP7).
T7 construct: purchased Eurofins DiscoverX KINOMEscan
Description: KINOMEscan 1 μM, STK36. The format is binding. The conditions noted are these: 1000 nM; Entrez STK36; read-out: Percent Control.
Text: as §1

Assay [8] concerns the target T8, EPHB4 (Homo sapiens, UniProt P54760).
T8 construct: purchased Eurofins DiscoverX KINOMEscan
Description: KINOMEscan 1 μM, EPHB4. The format is binding. The conditions noted are these: 1000 nM; Entrez EPHB4; read-out: Percent Control.
Text: as §1

For assay [9], the target named is T9, MARK3 (Homo sapiens, UniProt P27448).
T9 construct: purchased Eurofins DiscoverX KINOMEscan
T9 sequence (P27448 whole entry): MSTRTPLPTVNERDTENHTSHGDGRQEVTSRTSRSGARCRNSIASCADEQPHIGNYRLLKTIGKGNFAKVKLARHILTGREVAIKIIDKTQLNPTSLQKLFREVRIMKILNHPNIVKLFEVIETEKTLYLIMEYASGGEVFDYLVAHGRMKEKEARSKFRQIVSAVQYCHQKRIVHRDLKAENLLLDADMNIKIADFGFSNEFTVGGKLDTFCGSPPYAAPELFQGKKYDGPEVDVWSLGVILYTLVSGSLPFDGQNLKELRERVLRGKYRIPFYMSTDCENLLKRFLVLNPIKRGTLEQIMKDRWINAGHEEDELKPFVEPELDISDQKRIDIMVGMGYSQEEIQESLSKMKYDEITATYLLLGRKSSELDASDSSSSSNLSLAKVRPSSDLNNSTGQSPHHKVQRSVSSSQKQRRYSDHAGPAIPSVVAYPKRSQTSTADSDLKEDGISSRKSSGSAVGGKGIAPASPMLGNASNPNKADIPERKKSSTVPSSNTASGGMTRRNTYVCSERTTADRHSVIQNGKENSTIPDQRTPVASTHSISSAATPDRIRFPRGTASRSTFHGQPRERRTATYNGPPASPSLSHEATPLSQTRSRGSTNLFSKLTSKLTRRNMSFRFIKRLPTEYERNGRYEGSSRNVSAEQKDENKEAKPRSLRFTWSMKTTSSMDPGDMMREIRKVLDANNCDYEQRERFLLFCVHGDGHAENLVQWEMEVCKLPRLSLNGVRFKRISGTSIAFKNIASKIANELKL
The assay can be described thus: KINOMEscan 1 μM, MARK3. The conditions noted are these: 1000 nM; Entrez MARK3; read-out: Percent Control. The format is binding.
Text: as §1

For assay [10], the target named is T10, NEK11 (Homo sapiens, UniProt Q8NG66).
T10 construct: purchased Eurofins DiscoverX KINOMEscan
The assay can be described thus: KINOMEscan 1 μM, NEK11. The format is binding. The conditions noted are these: 1000 nM; Entrez NEK11; read-out: Percent Control.
Text: as §1

For assay [11], the target named is T11, CSK (Homo sapiens, UniProt P41240).
T11 construct: purchased Eurofins DiscoverX KINOMEscan
The assay can be described thus: KINOMEscan 1 μM, CSK. Particulars: 1000 nM; Entrez CSK; read-out: Percent Control. The format is binding.
Text: as §1

The target of assay [12] is T12, CDK4 (Homo sapiens, UniProt P11802).
T12 construct: purchased Eurofins DiscoverX KINOMEscan
Description: KINOMEscan 1 μM, CDK4. In kind it is binding. Particulars: 1000 nM; Entrez CDK4; read-out: Percent Control.
Text: as §1

Assay [13] deals with T13, CAMK1 (Homo sapiens, UniProt Q14012).
T13 construct: purchased Eurofins DiscoverX KINOMEscan
T13 sequence (Q14012 whole entry): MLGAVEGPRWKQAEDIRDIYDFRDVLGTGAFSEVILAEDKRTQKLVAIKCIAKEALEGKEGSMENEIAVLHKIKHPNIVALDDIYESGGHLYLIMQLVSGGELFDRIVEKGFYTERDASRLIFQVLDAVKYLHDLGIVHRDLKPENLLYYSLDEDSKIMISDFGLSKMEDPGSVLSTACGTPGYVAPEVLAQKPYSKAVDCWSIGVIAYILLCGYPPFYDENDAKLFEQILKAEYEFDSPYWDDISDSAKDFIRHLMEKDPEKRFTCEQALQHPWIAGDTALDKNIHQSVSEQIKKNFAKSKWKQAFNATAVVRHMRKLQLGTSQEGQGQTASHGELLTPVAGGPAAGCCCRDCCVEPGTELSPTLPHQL
The assay can be described thus: KINOMEscan 1 μM, CAMK1. The format is binding. The conditions noted are these: 1000 nM; Entrez CAMK1; read-out: Percent Control.
Text: as §1

Assay [14] deals with T14, GRK3 (Homo sapiens, UniProt P35626).
T14 construct: purchased Eurofins DiscoverX KINOMEscan
The assay can be described thus: KINOMEscan at 1 μM, GRK3. In kind it is binding. The conditions noted are these: 1000 nM, read-out: Percent Control. The source says:
(§2) Supplement cells-12-00287-s001.zip/File S2. KinomeScan data for the CAMKK2 probe and negative control.xlsx, sheet "SGC-CAMKK2-1N" | column: Percent Control

The target in assay [15] is T9, MARK3. The assay can be described thus: KINOMEscan at 1 μM, MARK3. The format is binding. The conditions noted are these: 1000 nM, read-out: Percent Control.
Text: as §2

The target in assay [16] is T15, FLT3(N841I) (Homo sapiens, UniProt P36888, N841I).
T15 construct: purchased Eurofins DiscoverX KINOMEscan
The assay can be described thus: KINOMEscan binding assay at 1 μM, FLT3(N841I). Particulars: Compound Concentration 1000 nM; read-out: Percent Control.
Text: as §2

The target of assay [17] is T16, CDKL5 (Homo sapiens, UniProt O76039).
T16 construct: purchased Eurofins DiscoverX KINOMEscan
The assay can be described thus: KINOMEscan at 1 μM, CDKL5. The format is binding. Particulars: 1000 nM, read-out: Percent Control.
Text: as §2

In assay [18] the target is T17, MET(M1250T) (Homo sapiens, UniProt P08581, M1250T).
T17 construct: purchased Eurofins DiscoverX KINOMEscan
Description: KINOMEscan binding assay at 1 μM, MET(M1250T). The conditions noted are these: Compound Concentration 1000 nM; read-out: Percent Control.
Text: as §2

The target in assay [19] is T18, CDK2 (Homo sapiens, UniProt P24941).
T18 construct: purchased Eurofins DiscoverX KINOMEscan
The assay can be described thus: KINOMEscan at 1 μM, CDK2. In kind it is binding. Particulars: 1000 nM, read-out: Percent Control.
Text: as §2

Assay [20] concerns the target T19, BRK (Homo sapiens, UniProt Q13882).
T19 construct: purchased Eurofins DiscoverX KINOMEscan
The assay can be described thus: KINOMEscan at 1 μM, BRK. The format is binding. The conditions noted are these: 1000 nM, read-out: Percent Control.
Text: as §2

The target of assay [21] is T20, DAPK2 (Homo sapiens, UniProt Q9UIK4).
T20 construct: purchased Eurofins DiscoverX KINOMEscan
The assay can be described thus: KINOMEscan at 1 μM, DAPK2. Particulars: 1000 nM, read-out: Percent Control. In kind it is binding.
Text: as §2

Assay [22] deals with T21, MINK (Homo sapiens, UniProt Q8N4C8).
T21 construct: purchased Eurofins DiscoverX KINOMEscan
Description: KINOMEscan at 1 μM, MINK. In kind it is binding. Particulars: 1000 nM, read-out: Percent Control.
Text: as §2

Assay [23] deals with T22, PAK2 (Homo sapiens, UniProt Q13177).
T22 construct: purchased Eurofins DiscoverX KINOMEscan
Description: KINOMEscan at 1 μM, PAK2. The format is binding. The conditions noted are these: 1000 nM, read-out: Percent Control.
Text: as §2

The target in assay [24] is T23, IRAK1 (Homo sapiens, UniProt P51617).
T23 construct: purchased Eurofins DiscoverX KINOMEscan
The assay can be described thus: KINOMEscan at 1 μM, IRAK1. In kind it is binding. Particulars: 1000 nM, read-out: Percent Control.
Text: as §2

For assay [25], the target named is T24, ACVR1B (Homo sapiens, UniProt P36896).
T24 construct: purchased Eurofins DiscoverX KINOMEscan
T24 sequence (P36896 24-505): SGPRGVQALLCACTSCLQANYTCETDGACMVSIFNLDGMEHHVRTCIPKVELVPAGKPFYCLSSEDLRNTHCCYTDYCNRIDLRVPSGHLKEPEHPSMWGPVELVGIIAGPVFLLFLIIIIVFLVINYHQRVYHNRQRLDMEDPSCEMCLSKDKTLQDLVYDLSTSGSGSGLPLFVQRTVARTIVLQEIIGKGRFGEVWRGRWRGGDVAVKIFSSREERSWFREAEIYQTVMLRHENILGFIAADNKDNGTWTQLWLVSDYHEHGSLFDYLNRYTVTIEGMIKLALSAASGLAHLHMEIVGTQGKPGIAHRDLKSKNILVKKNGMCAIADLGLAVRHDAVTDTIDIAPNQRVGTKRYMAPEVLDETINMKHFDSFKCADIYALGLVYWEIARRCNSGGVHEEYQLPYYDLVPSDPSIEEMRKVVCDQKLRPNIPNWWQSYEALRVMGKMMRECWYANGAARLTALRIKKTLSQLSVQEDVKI
Description: KINOMEscan at 1 μM, ACVR1B. In kind it is binding. Particulars: 1000 nM, read-out: Percent Control.
Text: as §2

Assay [26] deals with T25, CASK (Homo sapiens, UniProt O14936).
T25 construct: purchased Eurofins DiscoverX KINOMEscan
T25 sequence (O14936 whole entry): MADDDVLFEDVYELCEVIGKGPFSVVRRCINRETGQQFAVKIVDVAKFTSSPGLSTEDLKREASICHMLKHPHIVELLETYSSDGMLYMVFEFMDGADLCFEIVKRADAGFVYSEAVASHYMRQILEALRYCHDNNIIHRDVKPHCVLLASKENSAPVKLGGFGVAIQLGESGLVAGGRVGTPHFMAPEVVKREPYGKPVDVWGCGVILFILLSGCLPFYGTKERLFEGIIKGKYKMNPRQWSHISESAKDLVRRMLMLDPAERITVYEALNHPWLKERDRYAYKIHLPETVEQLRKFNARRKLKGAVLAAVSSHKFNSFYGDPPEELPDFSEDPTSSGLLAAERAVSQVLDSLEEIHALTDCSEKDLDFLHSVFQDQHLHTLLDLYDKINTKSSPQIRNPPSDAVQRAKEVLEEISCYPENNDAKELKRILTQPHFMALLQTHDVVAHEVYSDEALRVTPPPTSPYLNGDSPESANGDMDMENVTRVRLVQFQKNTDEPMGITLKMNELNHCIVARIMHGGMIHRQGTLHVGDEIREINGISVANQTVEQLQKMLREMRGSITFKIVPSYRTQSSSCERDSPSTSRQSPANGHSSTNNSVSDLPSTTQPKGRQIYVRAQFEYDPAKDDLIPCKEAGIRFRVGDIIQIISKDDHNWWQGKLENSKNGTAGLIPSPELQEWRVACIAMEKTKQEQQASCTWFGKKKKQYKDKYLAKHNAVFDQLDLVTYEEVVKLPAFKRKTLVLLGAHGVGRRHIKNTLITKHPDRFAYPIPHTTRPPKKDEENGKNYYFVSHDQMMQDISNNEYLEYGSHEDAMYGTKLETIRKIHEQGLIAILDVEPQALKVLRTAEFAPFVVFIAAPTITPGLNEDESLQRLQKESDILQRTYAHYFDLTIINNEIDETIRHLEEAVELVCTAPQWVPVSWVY
Description: KINOMEscan at 1 μM, CASK. In kind it is binding. Particulars: 1000 nM, read-out: Percent Control.
Text: as §2

In assay [27] the target is T26, AKT2 (Homo sapiens, UniProt P31751).
T26 construct: purchased Eurofins DiscoverX KINOMEscan
Description: KINOMEscan at 1 μM, AKT2. The format is binding. The conditions noted are these: 1000 nM, read-out: Percent Control.
Text: as §2

For assay [28], the target named is T27, MAP3K1 (Homo sapiens, UniProt Q13233).
T27 construct: purchased Eurofins DiscoverX KINOMEscan
Description: KINOMEscan at 1 μM, MAP3K1. The format is binding. The conditions noted are these: 1000 nM, read-out: Percent Control.
Text: as §2

The target of assay [29] is T28, TLK1 (Homo sapiens, UniProt Q9UKI8).
T28 construct: purchased Eurofins DiscoverX KINOMEscan
Description: KINOMEscan at 1 μM, TLK1. The format is binding. Particulars: 1000 nM, read-out: Percent Control.
Text: as §2

Assay [30] deals with T29, CDK4-cyclinD1 (Homo sapiens, UniProt P11802).
T29 construct: purchased Eurofins DiscoverX KINOMEscan
The assay can be described thus: KINOMEscan at 1 μM, CDK4-cyclinD1. The format is binding. The conditions noted are these: 1000 nM, read-out: Percent Control.
Text: as §2

Assay [31] concerns the target T30, PAK4 (Homo sapiens, UniProt O96013).
T30 construct: purchased Eurofins DiscoverX KINOMEscan
The assay can be described thus: KINOMEscan at 1 μM, PAK4. In kind it is binding. Particulars: 1000 nM, read-out: Percent Control.
Text: as §2

Assay [32] has as its target T31, NEK3 (Homo sapiens, UniProt P51956).
T31 construct: purchased Eurofins DiscoverX KINOMEscan
The assay can be described thus: KINOMEscan at 1 μM, NEK3. The conditions noted are these: 1000 nM, read-out: Percent Control. In kind it is binding.
Text: as §2

Assay [33] concerns the target T32, RSK3(Kin.Dom.2-C-terminal) (Homo sapiens, UniProt Q15349).
T32 construct: RSK3(Kin.Dom.2-C-terminal); purchased Eurofins DiscoverX KINOMEscan
Description: KINOMEscan at 1 μM, RSK3(Kin.Dom.2-C-terminal). In kind it is binding. The conditions noted are these: 1000 nM, read-out: Percent Control.
Text: as §2

Assay [34] deals with T33, PCTK1 (Homo sapiens, UniProt Q00536).
T33 construct: purchased Eurofins DiscoverX KINOMEscan
T33 sequence (Q00536 whole entry): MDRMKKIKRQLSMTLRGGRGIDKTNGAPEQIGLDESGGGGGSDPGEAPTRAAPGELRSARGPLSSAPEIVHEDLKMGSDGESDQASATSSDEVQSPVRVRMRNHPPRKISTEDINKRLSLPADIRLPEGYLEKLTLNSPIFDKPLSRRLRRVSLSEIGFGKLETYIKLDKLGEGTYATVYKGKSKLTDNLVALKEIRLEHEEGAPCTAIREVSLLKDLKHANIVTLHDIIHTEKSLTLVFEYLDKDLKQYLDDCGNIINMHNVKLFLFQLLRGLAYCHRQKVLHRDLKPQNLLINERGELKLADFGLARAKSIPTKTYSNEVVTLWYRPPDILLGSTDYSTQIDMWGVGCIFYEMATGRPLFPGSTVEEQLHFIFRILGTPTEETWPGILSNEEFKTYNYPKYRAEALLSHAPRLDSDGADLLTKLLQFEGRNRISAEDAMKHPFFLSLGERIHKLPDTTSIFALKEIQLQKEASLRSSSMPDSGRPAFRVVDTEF
The assay can be described thus: KINOMEscan at 1 μM, PCTK1. Particulars: 1000 nM, read-out: Percent Control. The format is binding.
Text: as §2

Assay [35] has as its target T34, ABL1(H396P)-nonphosphorylated (Homo sapiens, UniProt P00519, H396P).
T34 construct: purchased Eurofins DiscoverX KINOMEscan
Description: KINOMEscan at 1 μM, ABL1(H396P)-nonphosphorylated. The format is binding. The conditions noted are these: 1000 nM, read-out: Percent Control.
Text: as §2

T3 sequence (P07332 whole entry): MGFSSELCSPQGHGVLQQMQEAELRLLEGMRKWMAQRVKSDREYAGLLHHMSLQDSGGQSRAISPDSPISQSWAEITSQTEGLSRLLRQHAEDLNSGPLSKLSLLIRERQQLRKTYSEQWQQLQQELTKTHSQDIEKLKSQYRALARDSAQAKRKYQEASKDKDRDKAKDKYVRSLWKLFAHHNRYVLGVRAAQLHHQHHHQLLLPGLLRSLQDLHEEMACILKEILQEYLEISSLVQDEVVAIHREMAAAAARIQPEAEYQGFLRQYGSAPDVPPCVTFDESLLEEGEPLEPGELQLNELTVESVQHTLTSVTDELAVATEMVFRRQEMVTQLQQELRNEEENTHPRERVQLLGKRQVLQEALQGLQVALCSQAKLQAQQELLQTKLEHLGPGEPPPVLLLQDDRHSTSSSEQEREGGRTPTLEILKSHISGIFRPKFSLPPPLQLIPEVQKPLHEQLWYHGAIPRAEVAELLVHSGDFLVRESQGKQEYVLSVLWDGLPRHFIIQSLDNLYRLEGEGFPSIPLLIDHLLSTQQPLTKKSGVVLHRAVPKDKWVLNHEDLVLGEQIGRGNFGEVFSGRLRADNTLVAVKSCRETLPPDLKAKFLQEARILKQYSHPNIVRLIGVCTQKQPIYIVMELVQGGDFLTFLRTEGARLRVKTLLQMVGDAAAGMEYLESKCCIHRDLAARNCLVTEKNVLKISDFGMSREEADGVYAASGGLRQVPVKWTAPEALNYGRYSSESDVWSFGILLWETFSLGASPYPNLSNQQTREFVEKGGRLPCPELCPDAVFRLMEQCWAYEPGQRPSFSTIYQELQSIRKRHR

For the molecule `Cc1cccc(-c2cnc3occ(-c4ccc(C(=O)O)c(C5CCCC5)c4)c3c2)c1` [SGC-CAMKK2-1 (YL-36)], the remaining binding at 1 µM in [1] was 100%; in assay [2], 100%; in assay [3] it was 88%; in assay [4] it was 100%; in [5], 82%; in [6] it was 100%. The remaining binding at 1 µM is 89% in [7]; 98% in [8]; 100% in assay [9]; 100% in assay [10]; 99% in assay [11]; 100% in assay [12]. The remaining binding at 1 µM in assay [13] stood at 89%.
On to `O=C(O)c1ccc(-c2coc3ncc(-c4ccccc4)cc23)cc1Cl` [SGC-CAMKK2-1N (UNC-YL-83)], for which the remaining binding at 1 µM in [14] is 66%; in assay [15], 61%; in assay [16], 100%; in assay [17] it was 100%; in [18] it was 100%; in [19] it was 91%. Besides, the remaining binding at 1 µM in [20] is 96%; in [21], 70%; in [22], 95%; in assay [23], 78%; in assay [24], 68%; in [25] it was 100%. For the same molecule, the remaining binding at 1 µM is 81% in [26]; 85% in [27]; 74% in assay [28]; 92% in [29]; 70% in [30]; 82% in assay [31]. Also, the remaining binding at 1 µM in assay [32] is 71%; in assay [33], 91%; in assay [34], 83%; in assay [35], 64%.
